Experiments:
Type in all cases: cell-based, human
c-met cardiac organoids [1] = assay: OCR/ECAR and energy phenotype (Seahorse XFp) under cobalt chloride-mimicked hypoxia
Procedure: Cardiac organoids cultured for 3-4 months in 96 wells were transferred randomly to XFp mini plates (1-6 organoids/well, 300 to 1100 μm in diameter) (Seahorse, Agilent). The cardiac culture medium was treated with 200 μM CoCl2 (sigma) concentration for 24 hours. To evaluate the effects of HGF stimulation and c-met inhibition we have used respectively HGF at 50 ng/ml (R&D Systems) and SU11274 at […] (Sigma) under hypoxia. OCR, ECAR and energy phenotype test were all measured using a Seahorse XFp analyzer (Seahorse, Agilent). On the day of testing, cells were incubated in XF assay medium for 1 hr at 37° C. in non-CO2 incubator before measurement. Cell energy phenotype kit was used with port A containing the FCCP/oligomycin stressor mix at 2.0/1.0 μM (final well concentration). OCR and ECAR were normalized to the cell numbers of each wells. Cells were stained with DAPI and calculated from Leica confocal microscope images.

[2] = tested on: control cardiac organoids; assay: Cobalt chloride-mimicked hypoxia, proBNP and caspase-3 immunostaining; conditions: 200 μM CoCl2 hypoxia 24 h, n=5, normalized by DAPI fluorescence intensity
Procedure: (§1) Cardiac organoids cultured on 24 or 96-well culture plates were washed with phosphate-buffered saline (PBS), fixed with 4% paraformaldehyde in PBS for 60 min, permeabilized with 0.2% Triton X-100 (Sigma) in PBS and blocked 10% serum. Primary antibodies were diluted in PBS 10% serum at the following concentrations: phospho-Met; 1:100 (Cell Signaling Technologies), phospho-STAT3; 1:200 (Cell Signaling Technologies), Sarcomeric Alpha Actinin; 1:200 (Abcam), MLC-2A; 1:100 (Synaptic Systems), MLC-2V; 1:100 (Synaptic Systems), Cardiac troponin T; 1:100 (Abcam), CD31; 1:100 (Abcam), Caspase-3; 1:100 (Cell Signaling Technologies), ProBNP; 1:100 (Abcam), and then washed three times in PBS. The samples were incubated with secondary antibodies in antibody dilution buffer, then washed in PBS. Nuclei were labeled with DAPI mounting medium. The negative control performed a secondary antibody only (data not shown). Visualization and capture were realized with a Leica confocal microscope and LAS AF software.
(§2) Cardiac organoids cultured for 3-4 months in 96 wells were transferred randomly to XFp mini plates (1-6 organoids/well, 300 to 1100 μm in diameter) (Seahorse, Agilent). The cardiac culture medium was treated with 200 μM CoCl2 (sigma) concentration for 24 hours. To evaluate the effects of HGF stimulation and c-met inhibition we have used respectively HGF at 50 ng/ml (R&D Systems) and SU11274 at 5 M (Sigma) under hypoxia.

c-met cardiac organoids [3] = assay: as above; conditions: 200 μM CoCl2 hypoxia 24 h, n=8, normalized by DAPI fluorescence intensity
Procedure: as §1, §2

[4] = tested on: control cardiac organoids; assay: OCR/ECAR and energy phenotype (Seahorse XFp) under cobalt chloride-mimicked hypoxia; conditions: after CoCl2 hypoxia 24 h; control group as compared to c-met group
Procedure: as §2
OCR, ECAR and energy phenotype test were all measured using a Seahorse XFp analyzer (Seahorse, Agilent). On the day of testing, cells were incubated in XF assay medium for 1 hr at 37° C. in non-CO2 incubator before measurement. Cell energy phenotype kit was used with port A containing the FCCP/oligomycin stressor mix at 2.0/1.0 μM (final well concentration). OCR and ECAR were normalized to the cell numbers of each wells. Cells were stained with DAPI and calculated from Leica confocal microscope images.

| Structure (SMILES) | glycolysis activity at the baseline (ECAR) (c-met cardiac organoids [1]; c-met organoids, CoCl2 + SU11274 24 h, compared with HGF-treated (50 ng/ml) control organoids) | energy phenotype (OCR versus ECAR) (c-met cardiac organoids [1]; after CoCl2 hypoxia 24 h, c-met organoids versus control) | caspase-3+ cells intensity [2] | proBNP+ cells intensity [2] | caspase-3+ cells intensity (c-met cardiac organoids [3]) | proBNP+ cells intensity (c-met cardiac organoids [3]) | glycolysis activity (ECAR) [4] |
| --- | --- | --- | --- | --- | --- | --- | --- |
| Cc1[nH]c(/C=C2\C(=O)Nc3ccc(S(=O)(=O)N(C)c4cccc(Cl)c4)cc32)c(C)c1C(=O)N1CCN(C)CC1 [SU11274] | significantly decreased |  |  |  |  |  |  |
| [Cl][Co][Cl] [cobalt, cobalt chloride] |  | more energetic than control | 0.61±0.11 | 0.78±0.16 | 0.34±0.16 | 0.73±1.4 | decreased |

— US20260250636A1, “A METHOD FOR PRODUCING A BIOENGINEERED MAMMAL INDUCED PLURIPOTENT STEM CELL-DERIVED CARDIAC ORGANOID” (INSTITUT NATIONAL DE LA SANTÉ ET DE LA RECHERCHE MÉDICALE, priority 2022, published 2026)
